What all share (assay): NCI anticancer screen, dose series, 48 h
Assay [1] deals with HCT-116 colon.
Assay [2] relates to SR leukemia.
Assay [3] concerns KM12 colon.
The subject of assay [4] is NCI-H460 lung.
Assay [5] relates to U251 CNS.
In assay [6] the test system is SK-MEL-5 melanoma.
Assay [7] deals with MDA-N.
Assay [8] relates to ACHN renal.
In assay [9] the test system is HS 578T breast.
Assay [10] concerns UO-31 renal.
The subject of assay [11] is UACC-257 melanoma.
Assay [12] has as its system EKVX NSCLC.

SMILES strings stand for the structures.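 Following 48 hours of exposure in 96-well plates, responses at five concentrations were used to interpolate endpoints linearly. At the GI50, growth is halved. TGI marks complete inhibition of growth.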 Some results are limits rather than exact numbers.

For the compound `COc1nn(Cc2ccccc2F)c2ccc([N+](=O)[O-])cc12`, the TGI in [1], in assay [2], in [3], in assay [4], in assay [5] and in assay [6] was above 100 µM each time. Further, the TGI in assay [7], in assay [8], in [9], in assay [10], in assay [11] and in [12] was above 100 µM each time.

For the compound `N=c1c2c3n(c4c(=O)n(-c5ccccc5)c(=S)n(c(=O)n1-c1ccccc1)c24)CCCCC3`, the TGI in assay [1], in assay [3], in assay [4], in assay [5], in assay [6] and in assay [7] was above 100 µM throughout. In addition, the TGI in [8], in [9], in [10], in assay [11] and in assay [12] was above 100 µM each time.

For the compound `COC(=O)C1=NN2c3ccccc3C(=O)OCCC2C1` (configuration not stated), the TGI in assay [1], in assay [2], in [3], in assay [4], in assay [5] and in assay [6] was above 100 µM in each case. Further, the TGI in [7], in [8], in assay [9], in assay [10], in assay [11] and in assay [12] was above 100 µM each time.

Regarding `COc1ccc(/C=C2\CN(C)CC3=C2OC(N)=C(C#N)C3c2ccc(OC)cc2)cc1` (configuration not stated), the TGI in [1], in [2], in assay [3], in assay [4], in [5] and in [6] was above 100 µM in each case. Moreover, the TGI in assay [7], in assay [8], in [9], in [10], in assay [11] and in [12] was above 100 µM throughout.

Regarding `C[n+]1c2ccccc2c(CNC(CCC(N)=O)C(=O)O)c2ccccc21` (configuration not stated), the TGI in [1] is 1.21 µM; in assay [2], 3.71 µM; in [3] it was 9 µM; in assay [4], 11.8 µM; in assay [5], 12.8 µM; in assay [6], 10.5 µM. The TGI in [7] was found to be 10.5 µM; in [8], 5.41 µM; in assay [9], 21.8 µM; in assay [10], 10.3 µM; in assay [11], 12.9 µM; in assay [12] it was 12.9 µM.

`CC(C)CCCC(C)[C@H]1CC[C@H]2[C@@H]3CC[C@H]4C[C@@H](CCC=C(c5cc(Cl)c(O)c(C(=O)OC(C)(C)C)c5)c5cc(Cl)c(O)c(C(=O)OC(C)(C)C)c5)CC[C@]4(C)[C@H]3CC[C@]12C` (some centres not stated): the TGI in [1], in assay [3], in assay [5], in assay [6], in [7] and in [9] was above 50 µM throughout. Besides, the TGI in [12] is above 50 µM.

For the compound `Cc1ccc(/C=C2\NC(=S)N(CN3CCOCC3)C2=O)cc1`, the TGI in assay [1], in assay [2], in assay [3], in assay [5], in assay [6] and in assay [7] was above 100 µM throughout. Also, the TGI in assay [8], in assay [9], in assay [10], in assay [11] and in assay [12] was above 100 µM in each case.

As to `Cc1cc2c(cc1O)CC[C@@H]1[C@@H]2CC[C@]2(C)[C@@H](O)CC[C@@H]12`, the GI50 in assay [1] was 3.63 µM. Further, the TGI in assay [1] was 13.4 µM; in assay [2], 5.5 µM; in assay [3], 15.7 µM; in assay [4], 29.8 µM; in assay [5] it was 18.2 µM; in assay [6], 16.1 µM. Also, the TGI in assay [7] came to 4.39 µM; in assay [8] it was 51.9 µM; in [9] it was 7.17 µM; in assay [10], 37.6 µM; in assay [11], 42.5 µM.

For the compound `O=C(CCCCCCCCC(=O)NN1C(=O)/C(=C\c2ccc(O)c(O)c2)SC1c1c(O)ccc2ccccc12)NN1C(=O)C(=Cc2ccc(O)c(O)c2)SC1c1c(O)ccc2ccccc12` (configuration not stated), the TGI was above 100 µM in assay [1]; above 30.8 µM in [2]; above 100 µM in assay [3]; above 100 µM in assay [4]; above 54.4 µM in assay [5]; 19.4 µM in assay [6]. In addition, the TGI in [7] was above 100 µM; in assay [8], above 100 µM; in [10], 26.8 µM; in assay [11], above 92.7 µM; in [12] it was above 100 µM.

Consider `Cn1c(-c2csc(-c3ccc(Cl)cc3)n2)n[nH]c1=S`, for which the TGI in assay [1] was 40.9 µM; in [2], above 100 µM; in assay [3], above 100 µM; in [4], above 100 µM; in [6], above 100 µM; in assay [7], above 100 µM. Also, the TGI in assay [8] is 34.8 µM; in assay [9], 83.7 µM; in assay [10], 44.9 µM; in assay [11], above 100 µM; in [12] it was above 100 µM.

Take `CC1(C)OCC2OC3([C@H](O)CCO)OC(C)(C)OC3C2O1` (some centres not stated): the TGI in [1], in [2], in [3], in assay [4], in assay [5] and in [6] was above 100 µM throughout. Also, the TGI in assay [7], in [8], in [10], in [11] and in [12] was above 100 µM each time.

`CCCCCCOc1ccc(NC2=C(Cl)C(=O)c3cccnc3C2=O)cc1`: the TGI in assay [1] came to 2.09 µM; in [3], 2.97 µM; in assay [4], 3.8 µM; in assay [5], 7.29 µM; in [6], 2.31 µM; in [7], 3.18 µM. In addition, the TGI is 4.38 µM in assay [8]; above 10 µM in assay [9]; 2.47 µM in assay [10]; 5.21 µM in [11]; 3.22 µM in assay [12].

Regarding `Cc1cccc2sc(NC(=O)c3cc([N+](=O)[O-])ccc3Cl)nc12`, the TGI in assay [1] is 12 µM; in assay [2], above 100 µM; in assay [3], 12.1 µM; in [4], above 100 µM; in assay [5], 11.4 µM; in assay [6], 5.32 µM. Besides, the TGI in assay [7] was 3.69 µM; in [8], above 100 µM; in [10] it was 10.4 µM; in [11], above 100 µM; in assay [12], above 100 µM.

In the case of `N#CC1C(=O)Nc2sc(C(=O)c3ccc(Br)cc3)c(N)c2C12CCCCC2` (configuration not stated), the TGI in [1] is above 100 µM; in assay [2], above 100 µM; in assay [3], 44.1 µM; in [4] it was above 100 µM; in assay [5], above 100 µM; in assay [6], 32.5 µM. In addition, the TGI in [7] is 55.4 µM; in [8], above 100 µM; in [10] it was above 100 µM; in [11], above 100 µM; in assay [12], above 100 µM.

For the compound `c1ccc2nc3[nH]c4ccccc4c3cc2c1`, the TGI came out at 1.81 µM in [3]; 1.46 µM in [4]; 1.99 µM in [5]; 2.01 µM in [6]; 2 µM in assay [7]; 12.2 µM in assay [8]. Also, the TGI in assay [9] is 5.84 µM; in [10], 13.1 µM; in assay [11], 2.47 µM; in [12], 4.8 µM.

For `CO/N=C1\CCC2(O)C3Cc4ccc(O)c5c4C2(CCN3CC2CC2)[C@H]1O5` (some centres not stated), the TGI in assay [1], in [2], in assay [3], in assay [5], in assay [6] and in [7] was above 100 µM each time. Besides, the TGI in [8], in assay [9], in assay [10] and in assay [12] was above 100 µM throughout.

`O=C1Oc2ccccc2C(=O)/C1=C/N1C(=O)/C(=C/c2ccc([N+](=O)[O-])cc2)SC1=S`: the TGI in assay [1] is 50.2 µM; in [2] it was above 100 µM; in assay [3], 52.3 µM; in [4] it was 57.8 µM; in assay [5], above 100 µM; in assay [6], 46.4 µM. In addition, the TGI in assay [7] was 46.7 µM; in assay [8] it was 34 µM; in assay [9] it was 34.3 µM; in [11] it was 90.7 µM; in assay [12] it was above 100 µM.

For `O=[N+]([O-])c1ccc(Cl)cc1C1ON=C(c2ccccc2)N1C12CC3CC(CC(C3)C1)C2` (configuration not stated), the TGI in assay [1], in assay [2], in assay [4], in assay [5], in [6] and in [7] was above 100 µM in each case. In addition, the TGI in [8], in [9], in assay [10], in assay [11] and in assay [12] was above 100 µM in each case.

With `Cc1nc2c(nc1C)-c1c(c3c(n1Cc1ccccc1)C(=O)CCC3)C(=O)C2=O`, the TGI is above 100 µM in [1]; 6.36 µM in assay [2]; 4.64 µM in [3]; above 100 µM in assay [4]; 24.6 µM in assay [6]; 4.82 µM in [7]. The TGI in assay [9] is 7.99 µM; in [10], 4.07 µM; in assay [11] it was 48.3 µM; in [12], above 100 µM.

For the compound `N[C@@H]1c2c(Br)sc(Br)c2[C@H](O)[C@@H]1O`, the TGI in assay [1], in assay [3], in [4], in [5], in assay [6] and in [7] was above 100 µM in each case. Moreover, the TGI in [8], in assay [9], in assay [10], in assay [11] and in assay [12] was above 100 µM throughout.

As for `CC1=C(C2=C(C)C(=O)C(=O)c3cc(C)ccc32)c2ccc(C)cc2C(=O)C1=O`, the TGI in assay [1] was 1 µM; in assay [3], 0.447 µM; in [4], 0.531 µM; in assay [5], 0.685 µM; in assay [6], 0.374 µM; in assay [7], 0.347 µM. For the same compound, the TGI is 0.354 µM in assay [8]; 0.863 µM in [9]; 0.305 µM in assay [10]; 0.382 µM in assay [11]; 0.686 µM in assay [12].

Take `Cn1c(N2CCCC2)c(C=O)c(=O)n(C)c1=O`: the TGI in assay [1], in assay [3], in assay [4], in [5], in assay [6] and in assay [7] was above 100 µM throughout. Also, the TGI in [8], in [9], in [10], in [11] and in assay [12] was above 100 µM in each case.

For `Oc1ccc2c(c1)OCC(O)(c1ccccc1O)C2` (configuration not stated), the TGI in [1], in [3], in assay [4], in assay [5], in [6] and in [7] was above 100 µM each time. Moreover, the TGI in assay [8], in assay [9], in assay [10], in assay [11] and in [12] was above 100 µM in each case.

As to `CCOC(=O)c1c(C)n(Cc2ccccc2)c2c1cc(O)c1[nH]c3c(c12)CCCC3`, the TGI was found to be 27.8 µM in [1]; 13.2 µM in assay [3]; 7.32 µM in [4]; 4.1 µM in [5]; 15 µM in assay [6]; 28.2 µM in [7]. Also, the TGI in [8] was found to be 23.9 µM; in [9] it was 7.97 µM; in assay [10], 6.43 µM; in assay [11] it was 52.4 µM; in [12] it was 8.12 µM.
